# Reference: the NIST ThermoML archive (doi:10.1021/je200868y)
# ± gives the expanded uncertainty stated by the source.
# Details: Liquid; for mass density: 298.15 K, 101.33 kPa, Vibrating tube method
mass density [kg/m3],vapor or sublimation pressure (329.69 K) [kPa],vapor or sublimation pressure (336.07 K) [kPa],vapor or sublimation pressure (341.23 K) [kPa],vapor or sublimation pressure (345.6 K) [kPa],vapor or sublimation pressure (349.39 K) [kPa],vapor or sublimation pressure (351.44 K) [kPa],vapor or sublimation pressure (408.31 K) [kPa],vapor or sublimation pressure (417.74 K) [kPa],vapor or sublimation pressure (425.39 K) [kPa],vapor or sublimation pressure (431.86 K) [kPa],vapor or sublimation pressure (437.53 K) [kPa],vapor or sublimation pressure (440.57 K) [kPa],SMILES,vapor or sublimation pressure (379.81 K) [kPa],vapor or sublimation pressure (388.96 K) [kPa],vapor or sublimation pressure (396.45 K) [kPa],vapor or sublimation pressure (402.82 K) [kPa],vapor or sublimation pressure (408.4 K) [kPa],vapor or sublimation pressure (411.48 K) [kPa]
785.18 ± 0.15,40 ± 1.5,53.33 ± 2,66.66 ± 2.4,79.99 ± 2.8,93.32 ± 3.2,101.3 ± 3.4,,,,,,,CCO [ethanol],,,,,,
865.59 ± 0.11,,,,,,,40 ± 1.5,53.33 ± 2,66.66 ± 2.4,79.99 ± 2.8,93.32 ± 3.2,101.3 ± 3.4,CCCCCC(=O)OCC [ethyl hexanoate],,,,,,

SMILES,mass density [kg/m3],vapor or sublimation pressure (329.69 K) [kPa],vapor or sublimation pressure (336.07 K) [kPa],vapor or sublimation pressure (341.23 K) [kPa],vapor or sublimation pressure (345.6 K) [kPa],vapor or sublimation pressure (349.39 K) [kPa],vapor or sublimation pressure (351.44 K) [kPa],vapor or sublimation pressure (408.31 K) [kPa],vapor or sublimation pressure (417.74 K) [kPa],vapor or sublimation pressure (425.39 K) [kPa],vapor or sublimation pressure (431.86 K) [kPa],vapor or sublimation pressure (437.53 K) [kPa],vapor or sublimation pressure (440.57 K) [kPa],vapor or sublimation pressure (379.81 K) [kPa],vapor or sublimation pressure (388.96 K) [kPa],vapor or sublimation pressure (396.45 K) [kPa],vapor or sublimation pressure (402.82 K) [kPa],vapor or sublimation pressure (408.4 K) [kPa],vapor or sublimation pressure (411.48 K) [kPa]
"Cc1ccc(C)cc1 [1,4-dimethylbenzene]",856.68 ± 0.12,,,,,,,,,,,,,40 ± 1.5,53.33 ± 2,66.66 ± 2.4,79.99 ± 2.8,93.32 ± 3.2,101.3 ± 3.4
